In ChEMBL document CHEMBL4145534, “Computer-aided insights into receptor-ligand interaction for novel 5-arylhydantoin derivatives as serotonin 5-HT7 receptor agents with antidepressant activity” (Eur J Med Chem, 2018):

Key:
[1] = target: T1, Adrenergic receptor alpha-1 (Rattus norvegicus, UniProt P15823+P23944+P43140); experiment: Displacement of [3H]-prazosin from alpha1-adrenergic receptor in rat brain cortex after 30 mins by Microbeta scintillation counting method
T1 sequence (P15823 whole entry): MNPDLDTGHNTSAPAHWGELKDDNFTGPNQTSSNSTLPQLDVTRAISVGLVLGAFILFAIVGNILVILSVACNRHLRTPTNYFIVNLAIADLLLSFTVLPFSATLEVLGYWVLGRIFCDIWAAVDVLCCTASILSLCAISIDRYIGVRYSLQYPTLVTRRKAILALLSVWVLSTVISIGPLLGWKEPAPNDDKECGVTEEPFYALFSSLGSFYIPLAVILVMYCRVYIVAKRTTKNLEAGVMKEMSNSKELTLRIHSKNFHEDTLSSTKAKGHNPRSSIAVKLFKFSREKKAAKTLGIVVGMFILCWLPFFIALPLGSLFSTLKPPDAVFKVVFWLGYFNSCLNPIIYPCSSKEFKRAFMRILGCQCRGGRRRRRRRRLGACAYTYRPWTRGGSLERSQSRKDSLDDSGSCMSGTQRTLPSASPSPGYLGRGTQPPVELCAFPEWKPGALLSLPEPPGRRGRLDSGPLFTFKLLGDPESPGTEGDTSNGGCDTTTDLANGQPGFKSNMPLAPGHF
T1 sequence (P23944 whole entry): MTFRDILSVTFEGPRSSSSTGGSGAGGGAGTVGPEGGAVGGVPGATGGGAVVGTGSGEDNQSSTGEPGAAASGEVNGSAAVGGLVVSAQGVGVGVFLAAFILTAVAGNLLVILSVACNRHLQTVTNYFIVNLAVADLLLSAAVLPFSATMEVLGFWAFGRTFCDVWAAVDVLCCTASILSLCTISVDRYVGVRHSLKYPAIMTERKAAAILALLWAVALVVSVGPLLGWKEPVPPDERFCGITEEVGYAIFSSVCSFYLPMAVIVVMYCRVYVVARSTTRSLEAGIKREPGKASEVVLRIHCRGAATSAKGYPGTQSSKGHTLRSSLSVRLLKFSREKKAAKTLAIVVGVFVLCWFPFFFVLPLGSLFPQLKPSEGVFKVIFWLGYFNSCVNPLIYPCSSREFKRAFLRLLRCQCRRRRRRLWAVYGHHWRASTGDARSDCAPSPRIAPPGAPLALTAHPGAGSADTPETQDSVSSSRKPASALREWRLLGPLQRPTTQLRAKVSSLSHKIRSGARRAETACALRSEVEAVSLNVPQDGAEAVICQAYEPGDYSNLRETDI
T1 sequence (P43140 whole entry): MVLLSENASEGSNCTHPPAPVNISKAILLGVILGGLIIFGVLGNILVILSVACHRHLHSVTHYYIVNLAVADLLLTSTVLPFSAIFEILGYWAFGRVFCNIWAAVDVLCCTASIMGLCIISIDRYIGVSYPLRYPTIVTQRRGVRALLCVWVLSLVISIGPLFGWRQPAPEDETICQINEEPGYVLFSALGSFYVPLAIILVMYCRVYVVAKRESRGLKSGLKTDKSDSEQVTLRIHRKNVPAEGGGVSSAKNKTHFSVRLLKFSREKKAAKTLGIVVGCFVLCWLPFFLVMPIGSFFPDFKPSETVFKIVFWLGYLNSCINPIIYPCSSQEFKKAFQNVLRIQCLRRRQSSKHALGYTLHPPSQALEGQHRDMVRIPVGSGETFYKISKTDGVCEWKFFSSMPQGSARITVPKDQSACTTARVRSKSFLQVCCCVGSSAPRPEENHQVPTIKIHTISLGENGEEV

[2] = target: T2, Adrenergic receptor alpha-2 (Rattus norvegicus, UniProt P22086+P19328+P22909); experiment: Displacement of [3H]-clonidine from alpha2-adrenergic receptor in rat brain cortex after 30 mins by Microbeta scintillation counting method
T2 sequence (P22086 whole entry): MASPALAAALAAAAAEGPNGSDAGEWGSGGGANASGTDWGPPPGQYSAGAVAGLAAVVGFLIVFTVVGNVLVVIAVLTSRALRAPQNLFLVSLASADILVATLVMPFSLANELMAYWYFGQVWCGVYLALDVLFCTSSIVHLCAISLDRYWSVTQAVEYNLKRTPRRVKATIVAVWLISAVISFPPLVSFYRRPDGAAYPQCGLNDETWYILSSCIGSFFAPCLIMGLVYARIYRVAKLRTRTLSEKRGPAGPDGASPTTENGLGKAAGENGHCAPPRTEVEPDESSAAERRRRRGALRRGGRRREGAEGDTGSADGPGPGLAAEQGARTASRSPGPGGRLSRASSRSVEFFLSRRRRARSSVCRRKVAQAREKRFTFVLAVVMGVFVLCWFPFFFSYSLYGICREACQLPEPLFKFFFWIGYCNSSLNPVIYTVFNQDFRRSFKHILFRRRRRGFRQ
T2 sequence (P19328 whole entry): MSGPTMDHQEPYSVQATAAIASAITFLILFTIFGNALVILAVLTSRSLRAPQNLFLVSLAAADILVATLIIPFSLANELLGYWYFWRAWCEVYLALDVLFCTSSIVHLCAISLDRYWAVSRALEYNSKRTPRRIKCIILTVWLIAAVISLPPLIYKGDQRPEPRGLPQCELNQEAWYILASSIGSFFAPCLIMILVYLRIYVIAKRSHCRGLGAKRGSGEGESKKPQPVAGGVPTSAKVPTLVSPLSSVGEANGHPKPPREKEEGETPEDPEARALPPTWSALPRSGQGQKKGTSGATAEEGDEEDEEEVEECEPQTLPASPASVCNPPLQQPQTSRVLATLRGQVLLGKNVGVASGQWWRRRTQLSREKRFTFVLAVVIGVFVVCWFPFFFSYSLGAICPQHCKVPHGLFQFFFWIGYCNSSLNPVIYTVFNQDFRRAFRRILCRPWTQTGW
T2 sequence (P22909 whole entry): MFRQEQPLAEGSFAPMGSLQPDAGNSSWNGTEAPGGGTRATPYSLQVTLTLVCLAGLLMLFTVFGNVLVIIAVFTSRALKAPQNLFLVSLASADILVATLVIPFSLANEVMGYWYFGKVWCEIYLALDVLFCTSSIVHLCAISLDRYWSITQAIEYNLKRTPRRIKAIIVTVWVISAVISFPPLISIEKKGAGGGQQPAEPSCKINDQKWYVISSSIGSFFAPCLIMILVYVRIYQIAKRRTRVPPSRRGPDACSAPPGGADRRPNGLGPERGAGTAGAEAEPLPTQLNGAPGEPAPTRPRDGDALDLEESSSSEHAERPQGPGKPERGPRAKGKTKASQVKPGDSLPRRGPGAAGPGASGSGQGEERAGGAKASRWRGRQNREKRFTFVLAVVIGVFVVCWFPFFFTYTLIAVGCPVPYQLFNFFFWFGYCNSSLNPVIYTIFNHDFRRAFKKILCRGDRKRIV

[3] = target: Beta-1 adrenergic receptor (Rattus norvegicus, UniProt P18090); experiment: Displacement of [3H]-CGP-12177 from beta1-adrenergic receptor in rat brain cortex after 1 hr by Microbeta scintillation counting method
Sequence of Beta-1 adrenergic receptor (P18090 whole entry): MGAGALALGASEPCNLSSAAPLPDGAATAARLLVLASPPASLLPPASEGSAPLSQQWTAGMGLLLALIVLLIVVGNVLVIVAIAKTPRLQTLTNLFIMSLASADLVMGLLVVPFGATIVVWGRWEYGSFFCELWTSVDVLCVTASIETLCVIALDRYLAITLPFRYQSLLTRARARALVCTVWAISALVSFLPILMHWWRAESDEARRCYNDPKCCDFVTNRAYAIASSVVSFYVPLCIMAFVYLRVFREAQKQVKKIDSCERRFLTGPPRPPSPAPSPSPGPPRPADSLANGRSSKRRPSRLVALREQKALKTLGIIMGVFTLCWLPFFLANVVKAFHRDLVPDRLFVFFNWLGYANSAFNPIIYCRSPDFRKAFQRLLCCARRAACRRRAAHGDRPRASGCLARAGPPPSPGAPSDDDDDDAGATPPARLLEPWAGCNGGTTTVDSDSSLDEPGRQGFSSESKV

| Ki [1] | Ki [2] | Ki [3] | Structure (SMILES) |
| --- | --- | --- | --- |
| 0.2 µM | > 5 µM | > 10 µM | CC1(c2ccc(Br)cc2)NC(=O)N(CC(O)CN2CCN(c3ccccc3C#N)CC2)C1=O.Cl (racemic) |
| 0.167 µM | > 5 µM | > 10 µM | COc1ccccc1N1CCN(CC(O)CN2C(=O)NC(C)(c3ccc(Br)cc3)C2=O)CC1.Cl (racemic) |
| 0.25 µM | > 10 µM | > 10 µM | CC1(c2ccc(Cl)cc2)NC(=O)N(CC(O)CN2CCN(c3ccccc3C#N)CC2)C1=O.Cl (racemic) |
